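Briefly, cells in 96-well plates were exposed to five compound concentrations for 48 h, and endpoints were estimated by linear interpolation. GI50 = concentration required for 50% inhibition of growth.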 Calls of active or inactive are those of the source. Rule as the data show it: active = GI50 up to about 1.1 µM and inactive = higher.
How the values were obtained:
Experiment in all cases: inhibition of tumour cell growth, NCI panel, 48 h
CAKI-1 = system: CAKI-1
CCRF-CEM = system: CCRF-CEM
EKVX = system: EKVX
HCT-116 = system: HCT-116
HL-60 = system: HL-60
HT-29 = system: HT-29
NCI-H23 = system: NCI-H23
OVCAR-5 = system: OVCAR-5
OVCAR-8 = system: OVCAR-8
SK-MEL-28 = system: SK-MEL-28
SK-MEL-2 = system: SK-MEL-2
SK-MEL-5 = system: SK-MEL-5
SK-OV-3 = system: SK-OV-3
TK-10 = system: TK-10
HOP-92 = system: HOP-92
SF-539 = system: SF-539

Measured: GI50

Cc1ccccc1NC(=O)/C=N/O
inactive: CAKI-1 > 100 µM | EKVX 22 µM | HCT-116 > 100 µM | HT-29 > 100 µM | NCI-H23 > 100 µM | OVCAR-5 > 100 µM | OVCAR-8 > 100 µM | SK-MEL-28 > 100 µM | SK-MEL-2 > 100 µM | SK-MEL-5 > 100 µM | SK-OV-3 > 100 µM | TK-10 > 100 µM
active: CCRF-CEM < 0.01 µM | HL-60 0.429 µM

CCCCCCCCCCCCC(Br)C(C)=O (stereo not given)
inactive: CCRF-CEM > 100 µM | EKVX > 100 µM | HCT-116 > 100 µM | HL-60 > 100 µM | HOP-92 > 100 µM | HT-29 > 100 µM | NCI-H23 > 100 µM | OVCAR-5 > 100 µM | OVCAR-8 > 100 µM | SF-539 > 100 µM | SK-MEL-28 > 100 µM | SK-MEL-2 > 100 µM | SK-MEL-5 > 100 µM | SK-OV-3 > 100 µM | TK-10 > 100 µM

CCC1(CC)C(=O)NC(=S)N=C1N
inactive: CCRF-CEM > 100 µM | EKVX > 100 µM | HCT-116 > 100 µM | HL-60 > 100 µM | HOP-92 > 100 µM | HT-29 > 100 µM | NCI-H23 > 100 µM | OVCAR-5 > 100 µM | OVCAR-8 > 100 µM | SF-539 > 100 µM | SK-MEL-28 > 100 µM | SK-MEL-2 > 100 µM | SK-OV-3 > 100 µM | TK-10 > 100 µM

CC12CCC(=O)C[C@H]1CCC(OC=O)C2Br (stereo not given in full)
inactive: CAKI-1 > 100 µM | CCRF-CEM > 100 µM | HCT-116 > 100 µM | HL-60 > 100 µM | HOP-92 > 100 µM | HT-29 > 100 µM | NCI-H23 > 100 µM | OVCAR-5 > 100 µM | OVCAR-8 > 100 µM | SF-539 > 100 µM | SK-MEL-28 > 100 µM | SK-MEL-2 > 100 µM | SK-MEL-5 > 100 µM | SK-OV-3 > 100 µM | TK-10 > 100 µM

O=C(N/C(=C\c1ccc([N+](=O)[O-])cc1)c1nc2cc(Cl)ccc2[nH]1)c1ccccc1
inactive: CAKI-1 24.4 µM | CCRF-CEM 18.6 µM | EKVX 29.4 µM | HL-60 17.2 µM | HOP-92 14 µM | HT-29 20.3 µM | NCI-H23 18.1 µM | OVCAR-5 11.3 µM | OVCAR-8 30.1 µM | SF-539 19.1 µM | SK-MEL-28 22.9 µM | SK-MEL-2 21.9 µM | SK-MEL-5 17.6 µM | SK-OV-3 39.4 µM | TK-10 32.4 µM

COc1ccc(C(C2=C(O)CC(C)OC2=O)C2=C(O)CC(C)OC2=O)cc1 (stereo not given)
inactive: CAKI-1 > 100 µM | CCRF-CEM > 100 µM | EKVX > 100 µM | HCT-116 > 100 µM | HT-29 > 100 µM | NCI-H23 > 100 µM | OVCAR-5 > 100 µM | OVCAR-8 > 100 µM | SF-539 > 100 µM | SK-MEL-28 > 100 µM | SK-MEL-2 > 100 µM | SK-MEL-5 > 100 µM

COc1ccc2[nH]c3c4c(c5cc(C(C)(C)C)ccc5c3c2c1)C(=O)N(c1ccccc1)C4=O
inactive: CAKI-1 > 100 µM | CCRF-CEM > 10 µM | EKVX > 100 µM | HCT-116 > 100 µM | HL-60 > 100 µM | HT-29 > 100 µM | NCI-H23 > 100 µM | OVCAR-5 > 100 µM | OVCAR-8 44.7 µM | SF-539 21.7 µM | SK-MEL-28 > 100 µM | SK-MEL-2 > 100 µM | SK-MEL-5 > 100 µM | SK-OV-3 > 100 µM | TK-10 60.5 µM

COC1CCC(OS(C)(=O)=O)C(CO)O1 (stereo not given)
inactive: CCRF-CEM > 100 µM | EKVX > 100 µM | HCT-116 > 100 µM | HL-60 > 100 µM | HOP-92 > 100 µM | HT-29 > 100 µM | NCI-H23 > 100 µM | OVCAR-5 > 100 µM | OVCAR-8 > 100 µM | SF-539 > 100 µM | SK-MEL-28 > 100 µM | SK-MEL-2 > 100 µM | SK-MEL-5 > 10 µM | SK-OV-3 > 100 µM | TK-10 > 100 µM

CC(C)[C@H](COC(C)(C)C)/N=C/N1CSc2ccccc21
inactive: CCRF-CEM 33.1 µM | EKVX 44.1 µM | HCT-116 27.6 µM | HL-60 26.4 µM | HOP-92 17.6 µM | HT-29 28.9 µM | NCI-H23 36.5 µM | OVCAR-5 > 100 µM | OVCAR-8 35.2 µM | SF-539 23.5 µM | SK-MEL-28 72.3 µM | SK-MEL-2 36.2 µM | SK-MEL-5 25.1 µM | SK-OV-3 29 µM | TK-10 51.5 µM

COC(=O)C(=O)C(C(=O)C(=O)Nc1ccc(C)cc1C)c1nc2ccccc2nc1O (stereo not given)
inactive: CAKI-1 21.3 µM | CCRF-CEM 4.99 µM | EKVX 17.9 µM | HCT-116 63 µM | HL-60 41.8 µM | HT-29 > 100 µM | NCI-H23 66.8 µM | OVCAR-5 30.9 µM | OVCAR-8 37.7 µM | SF-539 36.6 µM | SK-MEL-28 51.9 µM | SK-MEL-2 54.3 µM | SK-MEL-5 58.1 µM | SK-OV-3 40.1 µM | TK-10 22.1 µM

ClCc1ccc(C2OCCO2)cc1
inactive: CCRF-CEM > 37.7 µM | EKVX > 43.2 µM | HCT-116 > 35.6 µM | HL-60 3.36 µM | HOP-92 18.8 µM | HT-29 15.9 µM | NCI-H23 12.2 µM | OVCAR-5 > 48.9 µM | OVCAR-8 17.5 µM | SF-539 > 42.3 µM | SK-MEL-28 > 40.7 µM | SK-MEL-2 21.1 µM | SK-MEL-5 24.8 µM | SK-OV-3 46.9 µM | TK-10 > 49 µM

O=C(/N=C(\Nc1ccccc1)SCCS/C(=N/C(=O)c1cccs1)Nc1ccccc1)c1cccs1
inactive: CAKI-1 23.3 µM | CCRF-CEM 34.8 µM | EKVX 92.5 µM | HCT-116 49 µM | HOP-92 6.37 µM | HT-29 33.3 µM | NCI-H23 46.2 µM | OVCAR-5 > 100 µM | OVCAR-8 73.3 µM | SF-539 > 100 µM | SK-MEL-28 49.9 µM | SK-MEL-2 94.6 µM | SK-MEL-5 21.5 µM | TK-10 > 100 µM

CCNC(=O)COc1ccc(Cl)cc1Cl
inactive: CAKI-1 > 100 µM | EKVX 55.7 µM | HCT-116 > 100 µM | HL-60 > 100 µM | HOP-92 > 100 µM | HT-29 > 100 µM | NCI-H23 > 100 µM | OVCAR-5 > 100 µM | OVCAR-8 > 100 µM | SF-539 > 100 µM | SK-MEL-28 > 100 µM | SK-MEL-2 > 100 µM | SK-MEL-5 > 100 µM | SK-OV-3 > 100 µM

OCC(O)C(OC1OC(CO)C(O)C(O)C1O)c1nn(-c2ccc(F)cc2)c2nc3cc(Cl)c(Cl)cc3cc12 (stereo not given)
inactive: CCRF-CEM > 100 µM | EKVX > 100 µM | HCT-116 > 100 µM | HT-29 > 100 µM | NCI-H23 > 100 µM | OVCAR-5 > 100 µM | OVCAR-8 > 100 µM | SF-539 > 100 µM | SK-MEL-28 > 100 µM | SK-OV-3 > 100 µM | TK-10 > 100 µM

Cc1ccccc1NC(=O)/C(=N\NC(N)=S)C(C#N)c1ccccc1 (stereo not given)
inactive: CCRF-CEM > 100 µM | EKVX > 100 µM | HCT-116 > 100 µM | HL-60 > 100 µM | HOP-92 > 100 µM | HT-29 > 100 µM | NCI-H23 > 100 µM | OVCAR-5 > 100 µM | OVCAR-8 > 100 µM | SF-539 > 100 µM | SK-MEL-28 > 100 µM | SK-MEL-2 > 100 µM | SK-MEL-5 > 100 µM | SK-OV-3 > 100 µM | TK-10 > 100 µM

Cc1ccc(NC(=O)CC/C(CC(=O)C(C)(C)C)=N\Nc2ccc([N+](=O)[O-])cc2[N+](=O)[O-])cc1C
inactive: CCRF-CEM 25.2 µM | EKVX > 100 µM | HCT-116 50.5 µM | HL-60 > 10 µM | HOP-92 27 µM | HT-29 57 µM | NCI-H23 46.2 µM | OVCAR-5 > 100 µM | OVCAR-8 59.6 µM | SF-539 59.4 µM | SK-MEL-28 > 100 µM | SK-MEL-2 76.4 µM | SK-OV-3 > 100 µM | TK-10 > 100 µM

COc1cc(C2C(Cl)C(=O)N2NC(=O)Cc2ccccc2)ccc1O (stereo not given)
inactive: CAKI-1 > 100 µM | CCRF-CEM 23.9 µM | EKVX > 100 µM | HCT-116 45.6 µM | HL-60 28.1 µM | HT-29 73.3 µM | NCI-H23 45.1 µM | OVCAR-5 > 100 µM | OVCAR-8 > 100 µM | SK-MEL-28 > 100 µM | SK-MEL-2 > 100 µM | SK-MEL-5 69.7 µM | SK-OV-3 > 100 µM | TK-10 > 100 µM

Cc1ccc(NC(=O)NC23CC4CC(CC(F)(C4)C2)C3)cc1
inactive: CCRF-CEM 56.4 µM | EKVX 92.3 µM | HCT-116 41.3 µM | HL-60 64.3 µM | HOP-92 55.2 µM | HT-29 53.6 µM | NCI-H23 99.3 µM | OVCAR-5 > 100 µM | OVCAR-8 > 100 µM | SF-539 > 100 µM | SK-MEL-28 > 100 µM | SK-MEL-2 > 100 µM | SK-MEL-5 > 100 µM | SK-OV-3 > 100 µM | TK-10 > 100 µM

COc1ccc(/C=N/N=C(\N)NO)c(Cl)c1O
inactive: CAKI-1 10.3 µM | CCRF-CEM 14.7 µM | EKVX 10 µM | HCT-116 15.2 µM | HOP-92 35.2 µM | NCI-H23 23.7 µM | OVCAR-5 1.91 µM | OVCAR-8 12.2 µM | SF-539 12.2 µM | SK-MEL-28 9.57 µM | SK-MEL-2 14.2 µM | SK-MEL-5 5.11 µM | SK-OV-3 22 µM

Reference: ChEMBL document CHEMBL1201862, “PubChem BioAssay data set” (2004)
